Reference: ChEMBL document CHEMBL1201862, “PubChem BioAssay data set” (2004)
The source made the active and inactive calls.

Key:
[1] = molecular target: Intestinal-type alkaline phosphatase (Homo sapiens, UniProt P09923); test: inhibition of human intestinal alkaline phosphatase – biochemical, dose response (AID 488876); assay type: functional
[2] = molecular target: Intestinal-type alkaline phosphatase (Mus musculus, UniProt P24822); test: PubChem AID 488785; assay type: functional
[3] = molecular target: T1, Alkaline phosphatase, tissue-nonspecific isozyme (Homo sapiens, UniProt P05186); test: TNAP enzyme inhibition by screening hits, dose response, selectivity assay for mouse IAP inhibitor project, biochemical, human TNAP, uHTS hits (AID 488906); assay type: functional
T1 sequence (P05186 whole entry): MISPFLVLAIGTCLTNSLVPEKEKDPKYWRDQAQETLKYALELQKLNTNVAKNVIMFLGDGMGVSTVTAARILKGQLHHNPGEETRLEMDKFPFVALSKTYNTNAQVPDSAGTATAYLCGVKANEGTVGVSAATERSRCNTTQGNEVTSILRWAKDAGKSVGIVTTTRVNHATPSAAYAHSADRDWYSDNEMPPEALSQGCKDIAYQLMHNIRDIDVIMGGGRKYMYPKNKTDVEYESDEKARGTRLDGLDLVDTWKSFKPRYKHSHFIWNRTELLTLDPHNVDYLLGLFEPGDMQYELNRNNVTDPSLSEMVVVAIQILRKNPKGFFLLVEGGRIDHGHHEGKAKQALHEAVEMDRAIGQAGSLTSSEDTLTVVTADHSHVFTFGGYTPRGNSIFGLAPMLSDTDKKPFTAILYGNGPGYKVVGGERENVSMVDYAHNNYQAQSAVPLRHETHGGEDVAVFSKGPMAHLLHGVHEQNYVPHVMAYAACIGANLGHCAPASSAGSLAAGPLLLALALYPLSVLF

[4] = molecular target: Lysine-specific demethylase 4C (Homo sapiens, UniProt Q9H3R0); test: GASC-1 (JMJD2C) histone demethylase inhibitors, dose response, biochemical, DELFIA europium, cherry-picked samples (AID 488835); assay type: functional
H9c2 = test: cells; assay type: functional, cell-based; conditions: Rattus norvegicus, H9c2, Myocardium;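 also: confirmatory concentration-response retest of ultra-high-throughput screening hits for modulation of myocardial damage; cell death induced by hydrogen peroxide oxidative stress; compound pretreatment for 60 min then peroxide exposure for 2 h; potency is for protecting the cells against peroxide damage rather than for killing them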
[5] = Shn3 3'UTR reporter inhibitors, dose response, cell-based, Clone20 osteoblasts, firefly luciferase, cherry-picked (AID 624132); assay type: functional;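 also: firefly luciferase luminescence from reporter carrying the Shn3 3'UTR in osteoblasts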
cells [6] = assay type: functional, cell-based
Streptococcus = test: Group A Streptococcus viability loss, dose response, counter-screen for streptokinase expression inhibitor project, luminescence, BacTiterGlo (AID 1915); assay type: functional, organism-based;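 also: potency for reduction of bacterial viability or growth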
Streptokinase A = molecular target: T2, Streptokinase A (Streptococcus pyogenes serotype M1, UniProt P10520); test: S. pyogenes streptokinase expression inhibitors, potency, dose response, plasminogen activation absorbance, OD405 (AID 1914); assay type: functional, Streptococcus pyogenes M1 GAS;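 also: secreted streptokinase activity via plasminogen activation per viability signal from cell pellet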
T2 sequence (P10520 whole entry): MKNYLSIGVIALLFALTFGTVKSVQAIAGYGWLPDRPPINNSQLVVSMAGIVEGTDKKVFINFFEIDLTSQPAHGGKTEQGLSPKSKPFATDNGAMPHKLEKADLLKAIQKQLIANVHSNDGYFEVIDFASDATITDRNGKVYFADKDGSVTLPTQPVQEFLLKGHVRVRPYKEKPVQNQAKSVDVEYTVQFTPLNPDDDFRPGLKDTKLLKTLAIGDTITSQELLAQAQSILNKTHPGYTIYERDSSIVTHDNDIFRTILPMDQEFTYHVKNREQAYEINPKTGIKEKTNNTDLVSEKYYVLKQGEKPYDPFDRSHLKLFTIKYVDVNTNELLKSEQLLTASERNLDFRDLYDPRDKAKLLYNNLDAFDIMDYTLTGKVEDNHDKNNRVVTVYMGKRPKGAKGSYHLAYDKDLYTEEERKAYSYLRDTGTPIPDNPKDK

INS1 = test: beta cell apoptosis inhibitors, cytokine rescue, dose response, luminescence, retest (AID 449756); assay type: functional, cell-based; conditions: Rattus norvegicus, INS1;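 also: cell death triggered by IL-1 beta plus TNF-alpha plus IFN-gamma mixture; protective hits raise ATP signal compared with cytokine alone wells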
[7] = insulin promoter down-regulators in MIN6 cells, imaging, high-content screening, mouse beta cells (AID 1628); assay type: functional
cells [8] = assay type: functional, cell-based; remark: listed apart in the source
[9] = system: Streptococcus sp. 'group A'; test: growth inhibition of control SK(-) GAS strain, dose response, counter-screen for streptokinase expression inhibitor project, luminescence, kanamycin, BacTiterGlo, confirmation (AID 1900); assay type: functional, organism-based
[10] = HepG2 cell cytotoxicity, dose response, cytotoxicity control for Shn3 inhibitor project, CellTiter-Glo, cherry-picked (AID 624134); assay type: functional, cell-based
[11] = control 3'UTR Renilla luciferase suppression, dose response, counter-screen for Shn3 inhibitor project, cell-based, Clone20-Shn3RL, cherry-picked (AID 624133); assay type: functional
[12] = cytotoxicity in MIN6 insulinoma cells, dose response, cytotoxicity control, cell-based, mouse insulinoma (AID 2122); assay type: functional;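 also: confirmatory high-throughput counterscreen run to flag cytotoxic compounds; mouse MIN-6 beta cells carrying an insulin promoter eGFP reporter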
[13] = growth suppression of beta-catenin-knockout colon cells, dose response, cell-based, HCT116, human colon tumor (AID 1045); assay type: functional;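 also: HCT116 colon tumor cells with beta catenin knocked out; cells exposed to compound for 60 hours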
HEK293 [14] = test: cells; conditions: Homo sapiens
[15] = growth suppression of PTEN-null colon cells, dose response, cell-based, HCT116 PTEN knockout (AID 1047); assay type: functional;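 also: HCT116 colon tumor cells with PTEN knocked out; cells exposed to compound for 60 hours before readout; potency for loss of cell viability measured by luminescence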
[16] = Luminescence Cell-Based Dose Retest to Confirm Inhibitors of Cancer Stem Cells. [Related pubchem assays (depositor defined):AID2717, AID2721]; assay type: functional; conditions: Homo sapiens
HEK293 [17] = test: cells; conditions: Homo sapiens; remark: listed apart in the source
SUMO E1/E2 = SUMO E1/E2 (Homo sapiens, UniProt P63279+Q9UBE0+Q9UBT2); test: SAR analysis of SUMOylation using HTRF in an in-Vitro dose response assay. [Related pubchem assays (depositor defined):AID2006, AID2011, AID2018, AID2069, AID2658]; assay type: functional
Chain of SUMO E1/E2 (Q9UBE0 whole entry): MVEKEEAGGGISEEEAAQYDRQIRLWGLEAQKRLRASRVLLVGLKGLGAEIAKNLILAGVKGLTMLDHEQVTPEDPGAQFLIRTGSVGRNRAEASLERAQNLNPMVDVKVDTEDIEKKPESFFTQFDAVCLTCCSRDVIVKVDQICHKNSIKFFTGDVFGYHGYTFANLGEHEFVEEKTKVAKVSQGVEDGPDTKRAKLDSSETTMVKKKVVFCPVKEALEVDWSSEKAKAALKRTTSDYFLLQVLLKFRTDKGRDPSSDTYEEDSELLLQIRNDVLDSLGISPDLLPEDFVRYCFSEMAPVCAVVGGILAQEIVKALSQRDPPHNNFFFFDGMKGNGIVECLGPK
Chain of SUMO E1/E2 (Q9UBT2 whole entry): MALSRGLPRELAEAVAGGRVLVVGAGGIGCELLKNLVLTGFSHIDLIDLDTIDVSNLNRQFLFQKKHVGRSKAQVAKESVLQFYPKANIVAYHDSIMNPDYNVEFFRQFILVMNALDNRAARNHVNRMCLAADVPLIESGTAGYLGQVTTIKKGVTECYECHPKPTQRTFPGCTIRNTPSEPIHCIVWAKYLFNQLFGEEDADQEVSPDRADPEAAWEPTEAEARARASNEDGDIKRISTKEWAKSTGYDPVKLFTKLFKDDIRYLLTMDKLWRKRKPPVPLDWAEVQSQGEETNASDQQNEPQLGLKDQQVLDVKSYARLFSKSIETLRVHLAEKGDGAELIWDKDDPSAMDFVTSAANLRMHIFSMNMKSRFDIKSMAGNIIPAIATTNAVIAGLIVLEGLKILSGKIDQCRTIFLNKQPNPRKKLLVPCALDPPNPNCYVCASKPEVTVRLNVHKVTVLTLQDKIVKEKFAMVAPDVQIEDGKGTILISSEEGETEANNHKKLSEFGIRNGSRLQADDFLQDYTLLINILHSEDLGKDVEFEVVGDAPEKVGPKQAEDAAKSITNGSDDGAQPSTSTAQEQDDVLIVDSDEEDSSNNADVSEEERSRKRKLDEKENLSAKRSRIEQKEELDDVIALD
Chain of SUMO E1/E2 (P63279 whole entry): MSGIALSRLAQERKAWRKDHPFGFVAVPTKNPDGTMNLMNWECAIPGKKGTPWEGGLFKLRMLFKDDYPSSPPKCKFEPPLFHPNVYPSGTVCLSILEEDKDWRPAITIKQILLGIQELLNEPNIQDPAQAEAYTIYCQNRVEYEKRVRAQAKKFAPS

Protein Wnt-3a = Protein Wnt-3a (Mus musculus, UniProt P27467); test: Wnt3a-driven reporter signaling inhibition, dose response, selectivity assay for Gli-SUFU antagonist project, Wnt-LIGHT cells, luminescence (AID 651570); assay type: functional; conditions: read-out: IC50_Mean;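 also: Wnt-LIGHT reporter cells stimulated with conditioned medium from Wnt3a-producing cells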
Chain of Protein Wnt-3a (P27467 whole entry): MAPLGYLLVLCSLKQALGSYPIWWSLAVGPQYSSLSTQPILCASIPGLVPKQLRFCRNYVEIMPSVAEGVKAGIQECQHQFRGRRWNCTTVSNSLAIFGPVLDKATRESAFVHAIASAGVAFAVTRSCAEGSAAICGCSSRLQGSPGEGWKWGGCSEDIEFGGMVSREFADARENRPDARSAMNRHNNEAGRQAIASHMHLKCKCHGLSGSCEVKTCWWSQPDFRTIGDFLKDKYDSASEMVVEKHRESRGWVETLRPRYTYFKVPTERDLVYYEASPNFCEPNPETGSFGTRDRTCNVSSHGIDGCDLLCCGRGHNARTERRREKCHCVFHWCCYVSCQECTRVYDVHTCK

[18] = molecular target: Voltage-dependent T-type calcium channel subunit alpha-1H (Homo sapiens, UniProt O95180); assay type: functional;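 also: channel activity triggered by adding a high calcium stimulation buffer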
Chain of Voltage-dependent T-type calcium channel subunit alpha-1H (O95180 whole entry): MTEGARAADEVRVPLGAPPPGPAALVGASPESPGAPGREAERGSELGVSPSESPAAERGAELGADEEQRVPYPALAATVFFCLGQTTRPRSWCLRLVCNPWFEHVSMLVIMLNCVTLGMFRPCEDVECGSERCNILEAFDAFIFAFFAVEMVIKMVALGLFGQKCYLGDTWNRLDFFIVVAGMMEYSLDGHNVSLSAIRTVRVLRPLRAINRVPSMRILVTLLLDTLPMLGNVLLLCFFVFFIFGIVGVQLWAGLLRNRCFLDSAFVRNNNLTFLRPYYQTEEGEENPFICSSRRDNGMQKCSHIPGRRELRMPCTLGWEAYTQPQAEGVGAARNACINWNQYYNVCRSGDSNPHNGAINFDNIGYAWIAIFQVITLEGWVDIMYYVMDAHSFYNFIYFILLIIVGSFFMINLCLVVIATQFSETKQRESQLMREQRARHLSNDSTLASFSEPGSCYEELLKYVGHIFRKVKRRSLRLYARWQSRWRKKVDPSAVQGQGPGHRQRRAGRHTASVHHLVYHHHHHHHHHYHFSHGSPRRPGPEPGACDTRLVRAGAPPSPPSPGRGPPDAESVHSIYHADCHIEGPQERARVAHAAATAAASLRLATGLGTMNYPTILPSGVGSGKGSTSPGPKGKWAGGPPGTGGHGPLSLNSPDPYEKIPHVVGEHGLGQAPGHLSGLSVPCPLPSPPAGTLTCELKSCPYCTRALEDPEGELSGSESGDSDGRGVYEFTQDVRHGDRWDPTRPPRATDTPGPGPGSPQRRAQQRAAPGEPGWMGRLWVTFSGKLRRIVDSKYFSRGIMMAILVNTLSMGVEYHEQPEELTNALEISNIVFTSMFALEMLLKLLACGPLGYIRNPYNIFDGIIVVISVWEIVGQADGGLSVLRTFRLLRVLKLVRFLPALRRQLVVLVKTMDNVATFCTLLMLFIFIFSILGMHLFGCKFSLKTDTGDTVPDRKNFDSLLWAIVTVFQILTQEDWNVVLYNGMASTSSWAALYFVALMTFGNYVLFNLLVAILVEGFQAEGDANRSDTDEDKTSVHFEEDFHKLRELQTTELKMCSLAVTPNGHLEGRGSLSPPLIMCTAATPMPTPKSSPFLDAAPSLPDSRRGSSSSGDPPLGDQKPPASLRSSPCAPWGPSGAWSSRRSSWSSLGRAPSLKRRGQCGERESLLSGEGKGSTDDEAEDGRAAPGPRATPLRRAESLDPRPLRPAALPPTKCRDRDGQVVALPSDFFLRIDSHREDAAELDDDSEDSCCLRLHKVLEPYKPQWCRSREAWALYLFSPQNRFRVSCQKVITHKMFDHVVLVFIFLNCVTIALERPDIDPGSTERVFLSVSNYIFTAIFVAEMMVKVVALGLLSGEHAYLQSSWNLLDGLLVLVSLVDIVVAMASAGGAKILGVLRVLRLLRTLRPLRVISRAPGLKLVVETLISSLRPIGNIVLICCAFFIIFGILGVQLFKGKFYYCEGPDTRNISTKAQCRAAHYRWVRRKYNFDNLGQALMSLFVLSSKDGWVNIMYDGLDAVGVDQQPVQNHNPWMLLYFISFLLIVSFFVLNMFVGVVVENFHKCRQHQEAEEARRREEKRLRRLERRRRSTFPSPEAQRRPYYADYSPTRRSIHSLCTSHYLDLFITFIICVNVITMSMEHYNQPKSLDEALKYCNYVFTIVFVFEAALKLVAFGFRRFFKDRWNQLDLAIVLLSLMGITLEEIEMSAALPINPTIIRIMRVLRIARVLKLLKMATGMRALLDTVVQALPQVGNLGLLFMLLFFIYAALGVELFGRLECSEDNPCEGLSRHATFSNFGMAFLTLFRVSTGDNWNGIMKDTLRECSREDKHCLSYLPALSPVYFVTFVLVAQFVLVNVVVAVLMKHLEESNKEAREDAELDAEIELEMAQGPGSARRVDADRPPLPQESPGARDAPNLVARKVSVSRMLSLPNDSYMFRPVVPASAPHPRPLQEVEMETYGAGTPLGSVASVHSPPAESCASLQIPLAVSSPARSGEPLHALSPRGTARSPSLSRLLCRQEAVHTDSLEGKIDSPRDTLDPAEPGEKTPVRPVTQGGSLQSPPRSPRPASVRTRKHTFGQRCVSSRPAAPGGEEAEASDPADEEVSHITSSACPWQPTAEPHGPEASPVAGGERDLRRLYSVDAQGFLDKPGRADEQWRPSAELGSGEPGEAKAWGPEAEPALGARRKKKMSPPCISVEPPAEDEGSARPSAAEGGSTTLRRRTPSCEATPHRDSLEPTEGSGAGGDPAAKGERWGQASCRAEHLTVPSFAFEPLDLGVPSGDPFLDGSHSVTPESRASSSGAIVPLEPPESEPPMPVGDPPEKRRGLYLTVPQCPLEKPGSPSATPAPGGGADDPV

Bcl-2-related protein A1 = molecular target: T3, Bcl-2-related protein A1 (Mus musculus, UniProt Q07440); assay type: functional;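 also: confirmatory dose–response counterscreen on Bfl-1, used to check hits from a UBC13 polyubiquitin inhibitor campaign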
T3 sequence (Q07440 whole entry): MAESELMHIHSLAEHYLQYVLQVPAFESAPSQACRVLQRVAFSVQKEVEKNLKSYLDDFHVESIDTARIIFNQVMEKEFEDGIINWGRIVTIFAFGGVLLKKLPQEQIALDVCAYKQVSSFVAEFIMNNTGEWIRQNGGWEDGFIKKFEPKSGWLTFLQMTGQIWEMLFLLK

[19] = molecular target: T4, Ubiquitin-conjugating enzyme E2 N (Homo sapiens, UniProt P61088); assay type: functional
T4 sequence (P61088 whole entry): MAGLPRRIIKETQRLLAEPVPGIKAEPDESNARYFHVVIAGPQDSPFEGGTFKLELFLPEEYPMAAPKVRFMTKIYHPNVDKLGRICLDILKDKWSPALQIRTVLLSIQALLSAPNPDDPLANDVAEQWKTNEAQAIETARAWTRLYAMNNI

[20] = molecular target: T4, Ubiquitin-conjugating enzyme E2 N; assay type: functional; remark: listed apart in the source

Chain of Intestinal-type alkaline phosphatase (Mus musculus, UniProt P24822) (P24822 whole entry): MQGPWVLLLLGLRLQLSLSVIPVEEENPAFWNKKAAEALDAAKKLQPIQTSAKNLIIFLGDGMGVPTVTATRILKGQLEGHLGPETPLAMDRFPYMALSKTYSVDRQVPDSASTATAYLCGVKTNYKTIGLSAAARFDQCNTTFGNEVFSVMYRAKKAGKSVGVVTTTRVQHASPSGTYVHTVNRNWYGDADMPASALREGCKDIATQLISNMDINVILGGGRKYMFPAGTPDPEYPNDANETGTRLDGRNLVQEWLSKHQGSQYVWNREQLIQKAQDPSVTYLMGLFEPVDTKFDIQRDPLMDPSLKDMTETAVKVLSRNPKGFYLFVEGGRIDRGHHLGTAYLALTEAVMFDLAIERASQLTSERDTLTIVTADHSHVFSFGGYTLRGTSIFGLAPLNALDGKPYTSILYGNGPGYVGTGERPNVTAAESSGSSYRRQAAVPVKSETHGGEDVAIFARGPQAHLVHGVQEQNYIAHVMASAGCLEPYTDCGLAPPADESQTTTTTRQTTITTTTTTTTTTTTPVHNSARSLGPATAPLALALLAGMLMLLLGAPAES
Chain of Intestinal-type alkaline phosphatase (Homo sapiens, UniProt P09923) (P09923 whole entry): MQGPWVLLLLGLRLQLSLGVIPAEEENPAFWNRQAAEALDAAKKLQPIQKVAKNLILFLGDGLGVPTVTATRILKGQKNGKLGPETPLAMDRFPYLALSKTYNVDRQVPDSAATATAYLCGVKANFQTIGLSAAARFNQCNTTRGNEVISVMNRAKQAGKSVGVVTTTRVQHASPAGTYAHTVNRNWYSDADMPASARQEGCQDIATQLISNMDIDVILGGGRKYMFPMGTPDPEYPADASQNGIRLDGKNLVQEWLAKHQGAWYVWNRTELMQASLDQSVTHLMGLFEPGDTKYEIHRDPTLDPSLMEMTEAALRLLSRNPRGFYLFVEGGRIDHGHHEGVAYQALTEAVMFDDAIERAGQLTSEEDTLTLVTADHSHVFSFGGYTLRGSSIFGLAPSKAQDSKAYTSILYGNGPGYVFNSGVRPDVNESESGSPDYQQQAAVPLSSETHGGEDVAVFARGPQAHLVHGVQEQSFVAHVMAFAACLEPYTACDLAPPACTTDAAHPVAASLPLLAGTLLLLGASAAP

In the case of `Cc1ccc(C)c(NC(=O)CCNS(=O)(=O)c2ccc3[nH]c(=O)oc3c2)c1`, the IC50 [1] is reported as > 100 µM (inactive), the IC50 [2] is reported as 5.21 µM (active) and the IC50 [3] is reported as 22.6 µM (active).
With `COc1ccc(NC(=O)CNC(=O)c2nn(-c3ccc(OC)c(Cl)c3)c(=O)c3ccccc23)c(OC)c1` the AC50 [4] was 21.5 µM (active).
For `O=C(Nc1nc(-c2ccccn2)cs1)c1cccc(-n2cnnn2)c1`, the IC50 (H9c2) was > 79 µM (inactive), the AC50 [5] was 2.58 µM (active) and the EC50 (cells [6]) was > 350 µM (not active). For the same compound, the EC50 (Streptococcus) was > 150 µM (not active), the EC50 (Streptokinase A) was > 150 µM (not active) and the AC50 (INS1) was 1.56 µM (active). The IC50 [7] was 2.43 µM (active), the EC50 (cells [8]) was > 350 µM (not active) and the EC50 [9] was 24.7 µM (active). The AC50 [10] was 8.31 µM (active), the AC50 [11] was 2.43 µM (active) and the IC50 [12] was 2.54 µM (active).
With `O=C(NCCC1=CCCCC1)c1coc(=O)c(Br)c1` the EC50 [13] was 28.6 µM (active), the EC50 (HEK293 [14]) was > 59.6 µM (inactive) and the EC50 [15] was 28.9 µM (active). The AC50 [16] was 6.05 µM (active) and the EC50 (HEK293 [17]) was > 59.6 µM (inactive).
For `O=c1c2ccccc2nc(COc2ccccc2)n1N=Cc1cc([N+](=O)[O-])ccc1O`, the IC50 (SUMO E1/E2) was 43.7 µM (active).
In the case of `CCCOc1ccccc1N=C(NC(=O)COc1ccc(OC)cc1)Nc1nc(C)cc(C)n1`, the AC50 [5] is reported as 3.24 µM (active), the IC50 [7] is reported as 2.3 µM (active) and the AC50 [10] is reported as 49.3 µM (active). For the same compound, the AC50 [11] was 6.58 µM (active), the IC50 (Protein Wnt-3a) was 6.39 µM (active) and the IC50 [12] was 3.16 µM (active). The EC50 [18] was 8.53 µM (active).
For `COc1ccccc1NC(=O)CN1CCC(n2c(C)nc3cc(F)ccc32)CC1`, the IC50 (Bcl-2-related protein A1) was > 20 µM (inactive), the IC50 [19] was 1.78 µM (active) and the IC50 [20] was 1.53 µM (active). The EC50 (HEK293 [14]) was > 59.6 µM (inactive) and the EC50 (HEK293 [17]) was > 59.6 µM (inactive).
